According to patent US8697858B2 (priority 2009, dated 2014):
l = locked nucleic acid (LNA); d = 2'-deoxy (DNA)

Legend:
[1] = test system: H1N1 (strain PR8); format: cell-based, murine
[2] = test system: M2 protein; format: cell-based, H1N1 (strain PR8)

2′OMe-AUG2: 2′OMe phosphorothioate oligomer, SEQ ID NO: 20 (ACCTCGGTTAGAAGACTCATCTTTC; all 2'-O-methyl, all phosphorothioate, T or U not given here)
relative effectiveness of the 2′OMe compounds (viral HA RNA; also observed for M2 protein) [1]: most effective

LNA-AUG1: LNA (capitals)/DNA CgGtTaGaAgAcTcAtCtTt (CGGTTAGAAGACTCATCTTT; sugars from the 5' end ldldldldldldldldldld, backbone and methylation of C not given here)
effectiveness in the M2 protein expression assay [2]: most effective | reduction in viral HA RNA levels [1]: approximately 3 log

LNA-AUG10: LNA (capitals)/DNA gAcTcAtCtT (GACTCATCTT; sugars from the 5' end dldldldldl, backbone and methylation of C not given here)
effectiveness in the M2 protein expression assay [2]: least effective | effectiveness in the viral HA RNA assay [1]: least effective

LNA-AUG12: LNA (capitals)/DNA CgGtTaGaAgAcTcAt (CGGTTAGAAGACTCAT; sugars from the 5' end ldldldldldldldld, backbone and methylation of C not given here)
reduction in viral HA RNA levels [1]: approximately 1.5 log
